Converted amounts (≈) assume the structure as drawn.
Columns and labels:
Assay type in all cases: functional
P388 = experiment: Effective dose against the p-388 mouse leukemia cell line; details: read-out: ED50 (the source's name)
CCRF-CEM = experiment: Effective dose for inhibition of proliferation of the leukemia cell line CCRF-CEM; details: Homo sapiens, read-out: ED50 (the source's name)
NCI-H226 = experiment: Effective dose for inhibition of proliferation of the lung cancer cell line NCI-H226; details: Homo sapiens, read-out: ED50 (the source's name)
HL-60 = experiment: Effective dose for inhibition of proliferation of the leukemia cell line HL-60(TB); details: Homo sapiens, read-out: ED50 (the source's name)

## O=C1N[C@H]2C[C@H](O)[C@@H](O)C[C@@H]2c2cc3c(cc21)OCO3
P388
  EC50: 0.45 µg/mL (≈ 1.62 µM)
CCRF-CEM
  EC50: 0.55 µg/mL (≈ 1.98 µM)
NCI-H226
  EC50: 0.65 µg/mL (≈ 2.34 µM)
HL-60
  EC50: 0.89 µg/mL (≈ 3.21 µM)

## O=C1N[C@H]2[C@H](O)CCC[C@@H]2c2cc3c(cc21)OCO3
P388
  EC50: 40.1 µg/mL (≈ 153 µM)

Reference: ChEMBL document CHEMBL1133998, “Studies directed towards the refinement of the pancratistatin cytotoxic pharmacophore” (2001)
